Data taken from ChEMBL document CHEMBL6127108, “Triantaspirols A-C and Paraphaeolactone Cs from Paraphaeosphaeria sp. KT4192: Sensitivity of CP3 in Distinguishing Close NMR Signals” (J Nat Prod, 2024).
Active and inactive are the calls of the source. The calls are words filed in the database; no cut-off is given here.

System: COLO 201
Assay: Cytotoxicity against human COLO201 cells assessed as inhibition of cell growth incubated for 24 hrs by WST-1 assay
Type: functional, cell-based
Details: for IC50: COLO 201, 24 h

Row | Compound | Activity | IC50
1 | Oc1ccc(O)c2c1[C@@H](O)CCC21Oc2cccc3cccc(c23)O1 | inactive | 
2 | CC[C@@]1(O)C(=O)OCc2c1cc1n(c2=O)Cc2cc3ccccc3nc2-1 [CAMPTOTHECIN] |  | 34 µM
3 | Cc1ccc(O)c2c1C(=O)[C@@](C)(Oc1ccc(O)c3c1[C@@H](O)CCC31Oc3cccc4cccc(c34)O1)O2 |  | 17 µM
4 | Cc1ccc(O)c2c1C(=O)[C@](C)(Oc1ccc(O)c3c1[C@@H](O)CCC31Oc3cccc4cccc(c34)O1)O2 |  | 23 µM
5 | C[C@@H]1C=C[C@@]2(O)[C@@H]3OC(=O)[C@@](O)([C@H]13)[C@@H]2Oc1ccc(O)c2c1C(=O)CCC21Oc2cccc3cccc(c23)O1 | inactive | 
